Assay results reported in article PMC12030301, “Caffeic Acid Phenethyl Ester (CAPE) Inhibits Arginase Activity and Growth of Leishmania amazonensis Promastigotes and Intracellular Amastigotes” (Pathogens, 2025).

Target: T1, arginase
T1 construct: purified recombinant arginase
Experiment: enzyme inhibition kinetics with purified recombinant arginase; Dixon and Cornish-Bowden plots (IC50 […])
Assay type: biochemical, Leishmania amazonensis

## O=C(/C=C/c1ccc(O)c(O)c1)OCCc1ccccc1 [CAPE, Caffeic acid phenethyl ester]
  Ki: 1510 ± 40 nM
